The text below walks through data of ChEMBL document CHEMBL2177037, “10'-Fluorovinblastine and 10'-Fluorovincristine: Synthesis of a Key Series of Modified Vinca Alkaloids” (ACS Med Chem Lett, 2011).

Assay [1] relates to HCT-116/VM46. In words: Antitumor activity against human HCT116/VM46 cells xenografted in mouse assessed as mouse survival at 0.01 to 0.5 mg/kg, ip after 110 days. Format: functional, organism-based. Background: Xenograft models place foreign cells or tissue in a host animal.
Assay [2] concerns HCT-116/VM46. Put plainly: Ratio of vinblastin IC50 to compound IC50 for human vinblastin-resistant HCT116/VM46 cells. It counts as functional.
Assay [3] has as its system HCT-116. In words: Ratio of vinblastin IC50 to compound IC50 for human HCT116 cells. Format: functional.
Assay [4] concerns L1210. In words: Ratio of vinblastin IC50 to compound IC50 for mouse L1210 cells. It counts as functional.
For assay [5], the system named is HCT-116/VM46. In words: Cytotoxicity against human vinblastin-resistant HCT116/VM46 cells. It counts as functional, cell-based.
For assay [6], the system named is HCT-116. Put plainly: Cytotoxicity against human HCT116 cells. It counts as functional, cell-based.
Assay [7] relates to L1210. In words: Cytotoxicity against mouse L1210 cells. Format: functional, cell-based.

Active and inactive are the calls of the source. No cut-off for these calls is given here.

As usually defined, the IC50 is the concentration needed to halve the response being measured. The low end stands for inhibition by little substance, the high end for a need for much substance.

As to `CC[C@]1(O)C[C@H]2CN(CCc3c([nH]c4ccc(F)cc34)[C@@](C(=O)OC)(c3cc4c(cc3OC)N(C)[C@H]3[C@@](O)(C(=O)OC)[C@H](OC(C)=O)[C@]5(CC)C=CCN6CC[C@]43[C@@H]65)C2)C1`, the outcome in the assay with HCT-116/VM46 [1] was Active. Besides, the “Ratio IC50” value with HCT-116/VM46 [2], with HCT-116 [3] and in the assay with L1210 [4] was 8 in each case. In addition, the results for the 50% inhibitory concentration (IC50) with HCT-116/VM46 [5], with HCT-116 [6] and in the assay on L1210 [7] were 80 nM, 0.8 nM and 0.7 nM, respectively.
